ChEMBL document CHEMBL5625235, “Discovery of X10g as a selective PROTAC degrader of Hsp90α protein for treating breast cancer” (Eur J Med Chem, 2023)
pIC50: −log10 of the molar value. The source made the active and inactive calls. The rule behind the calls is not given here.

What was measured:
4T1 [1] = test: Antitumor activity against mouse 4T1 cells implanted in BALB/c mouse assessed as reduction in tumor weight at 60 mg/kg, ip administered daily for 20 days; type: functional, organism-based; details: time 20.0 day
MDA-MB-231 = test: Antiproliferative activity against human MDA-MB-231 cells assessed as inhibition of cell proliferation incubated for 72 hrs by MTT assay; type: functional, cell-based; details: MDA-MB-231, 72 h
[2] = target: T1, Protein cereblon/Heat shock protein HSP 90-beta (Homo sapiens) (UniProt P08238+Q96SW2); test: PROTAC activity at CRBN/HSP90beta in human MCF7 cells assessed as induction of HSP90beta degradation at 0.5 uM incubated for 8 hrs by Western blot analysis; type: cell-based
[3] = target: T2, Protein cereblon/Heat shock protein HSP 90-alpha (Homo sapiens, UniProt P07900+Q96SW2); test: PROTAC activity at CRBN/HSP90alpha in human MCF7 cells assessed as induction of HSP90alpha degradation at 0.5 uM incubated for 8 hrs in presence of MG132 by Western blot analysis; type: cell-based
[4] = target: T2, Protein cereblon/Heat shock protein HSP 90-alpha; test: PROTAC activity at CRBN/HSP90alpha in human MCF7 cells assessed as induction of HSP90alpha degradation at 0.5 uM incubated for 8 hrs by Western blot analysis; type: cell-based
[5] = AUC(0 to infinity) in rat at 15 mg/kg, ip administered as single dose and measured at 5 to 480 mins by LC-MS analysis; type: ADME, organism-based; details: in vivo, time 5-480 min
4T1 [6] = test: Antitumor activity against mouse 4T1 cells implanted in BALB/c mouse assessed as tumor growth inhibition at 60 mg/kg, ip administered daily for 20 days relative to control; type: functional; details: 4T1, 480 h, time 20 day, read-out: TGI
[7] = Toxicity in BALB/c mouse implanted with mouse 4T1 cells assessed as mortality at 60 mg/kg, ip administered daily for 20 days; type: organism-based; details: in vivo, 480 h, time 20 day
MX1 = test: Antiproliferative activity against human MX1 cells assessed as inhibition of cell proliferation incubated for 72 hrs by MTT assay; type: functional, cell-based; details: MX1, 72 h
[8] = AUCall in rat at 15 mg/kg, ip administered as single dose and measured at 5 to 480 mins by LC-MS analysis; type: ADME, organism-based; details: in vivo, time 5-480 min
[9] = target: T2, Protein cereblon/Heat shock protein HSP 90-alpha; test: PROTAC activity at CRBN/HSP90alpha in human MCF7 cells assessed as induction of survivin degradation at 0.5 uM incubated for 8 hrs by Western blot analysis; type: cell-based
[10] = Half-life in rat at 15 mg/kg, ip administered as single dose and measured at 5 to 480 mins by LC-MS analysis; type: ADME, organism-based; details: in vivo, time 5-480 min
[11] = Toxicity in BALB/c mouse implanted with mouse 4T1 cells assessed as effect on body weight at 60 mg/kg, ip administered daily for 20 days; type: organism-based; details: in vivo, 480 h, time 20 day
[12] = target: T2, Protein cereblon/Heat shock protein HSP 90-alpha; test: PROTAC activity at CRBN/HSP90alpha in human MCF7 cells assessed as induction of HSP90alpha degradation at 0.5 uM incubated for 8 hrs in presence of pomalidomide by Western blot analysis; type: cell-based
MCF7 = test: Antiproliferative activity against human MCF7 cells assessed as inhibition of cell proliferation incubated for 72 hrs by MTT assay; type: functional, cell-based; details: MCF7, 72 h
[13] = Tmax in rat at 15 mg/kg, ip administered as single dose and measured at 5 to 480 mins by LC-MS analysis; type: ADME, organism-based; details: in vivo, time 5-480 min
[14] = target: T2, Protein cereblon/Heat shock protein HSP 90-alpha; test: PROTAC activity at CRBN/HSP90alpha in human MCF7 cells assessed as induction of HSP90alpha degradation by measuring maximal efficacy at 0.1 to 5 uM incubated for 8 hrs by Western blot analysis relative to control; type: cell-based; details: dose 0.1-5 µM
[15] = target: T2, Protein cereblon/Heat shock protein HSP 90-alpha; test: PROTAC activity at CRBN/HSP90alpha in human MCF7 cells assessed as induction of HSP90alpha degradation by measuring maximal efficacy at high concentration incubated for 8 hrs by Western blot analysis; type: cell-based
[16] = target: T2, Protein cereblon/Heat shock protein HSP 90-alpha; test: PROTAC activity at CRBN/HSP90alpha in human MCF7 cells assessed as induction of HSP90alpha degradation at 0.5 uM incubated for 8 hrs in presence of MLN4924 by Western blot analysis; type: cell-based
MDA-MB-468 = test: Antiproliferative activity against human MDA-MB-468 cells assessed as inhibition of cell proliferation incubated for 72 hrs by MTT assay; type: functional, cell-based; details: MDA-MB-468, 72 h
[17] = target: T2, Protein cereblon/Heat shock protein HSP 90-alpha; test: PROTAC activity at CRBN/HSP90alpha in human MCF7 cells assessed as induction of HSP90alpha degradation at 0.5 uM incubated for 8 hrs in presence of AT13387 by Western blot analysis; type: cell-based
[18] = target: T2, Protein cereblon/Heat shock protein HSP 90-alpha; test: PROTAC activity at CRBN/HSP90alpha in human MCF7 cells assessed as induction of HSP90alpha degradation incubated for 8 hrs by Western blot analysis; type: cell-based
[19] = target: T1, Protein cereblon/Heat shock protein HSP 90-beta (Homo sapiens); test: PROTAC activity at CRBN/HSP90beta in human MCF7 cells assessed as induction of CDK4 degradation at 0.5 uM incubated for 8 hrs by Western blot analysis; type: cell-based
[20] = target: T2, Protein cereblon/Heat shock protein HSP 90-alpha; test: Binding affinity to CRBN/HSP90alpha (unknown origin) assessed as ternary complex formation; type: protein assay
[21] = Cmax in rat at 15 mg/kg, ip administered as single dose and measured at 5 to 480 mins by LC-MS analysis; type: ADME, organism-based; details: in vivo, time 5-480 min

SMILES: CC(C)c1cc(C(=O)N2Cc3ccc(CN4CCN(CCCCCCC(=O)Nc5cccc6c5C(=O)N(C5CCC(=O)NC5=O)C6=O)CC4)cc3C2)ccc1O (stereo not given)
- Activity (4T1 [1]): Active
- pIC50 (MDA-MB-231): 4.29
- Activity [2]: inactive
- Activity [3]: inactive
- Activity [4]: Active
- AUC(0-inf) [5]: 758 ng·h/mL
- inhibition in vivo at 60 mg/kg (4T1 [6]): 54%
- Activity [7]: Non-Toxic
- pIC50 (MX1): 4.92
- AUC [8]: 703 ng·h/mL
- Activity [9]: Active
- half-life [10]: 2.5 h
- Activity [11]: Non-Toxic
- Activity [12]: inactive
- pIC50 (MCF7): 5.05
- Tmax [13]: 0.6 h
- Emax [14]: 66.4%
- Activity [15]: inactive
- Activity [16]: inactive
- pIC50 (MDA-MB-468): 4.78
- Activity [17]: inactive
- DC50 [18]: 0.295 µM
- Activity [19]: inactive
- Activity [20]: Active
- Cmax [21]: 302 ng/mL
